We go through 2 molecules from publication PMC5047689 (Disease Models & Mechanisms, 2016).

Series [1] concerns the target ALK kinase domain mutants. The series is described as follows: In vitro kinase assay, summary over ALK kinase domain mutants. The format is biochemical, human. The settings on record: including ALK^G1269A, read-out: inhibitor level for 50% reduction in activity, all kinase domain mutations tested.
The test system of a further series is CLB-GE cells. The series is described as follows: Resazurin cell proliferation assay, neuroblastoma cell line. The format is cell-based. The settings on record: Homo sapiens, 120 h, read-out: IC50, inhibition of proliferation. Here is the method:
Fig. 1. […] Treatment of neuroblastoma cells with the ALK TKIs crizotinib and PF-06463922. (A,B) Proliferation was assessed over 5 days using the resazurin cell proliferation assay in the following neuroblastoma cell lines: CLB-BAR, CLB-GE, CLB-PE, SK-N-AS and IMR32. Neuroblastoma cell line characteristics: CLB-GE – MYCN amplified, 1p deletion, 17q gain, amplified ALK amplicon containing an ALK^F1174V mutation; CLB-BAR – amplified MYCN/ALK, Δexon 4-11, 1p deletion, 17q gain; IMR32 – MYCN, wt sequence but exons 2-4 are amplified, 1p deletion, 17q gain; CLB-PE – 1p gain, amplified MYCN, 17q gain; SK-N-AS – IGF-1 overexpressing, 1p deletion, 1q gain, 17q gain, 17 deletion. […] Cells were harvested and pre-cleared cell lysates were analyzed on SDS PAGE followed by western blotting for ALK, phospho-ALK-Y1278, phospho-ERK5, pan-ERK5 phospho-ERK1/2 and pan-ERK. Actin was employed as a loading control. Protein band intensities were quantified by Image Studio Lite 3.1 and normalized to untreated samples.
The neuroblastoma CLB cell lines were from Valerie Combaret (Centre Leon Berard, France) under material transfer agreement and all cell lines were authenticated during the investigation with Affymetrix Cytoscan High Density array and compared with earlier cytoscans ([Schleiermacher et al., 2003]). […]
Background: Alamar Blue is a resazurin reagent that responds to reducing activity.

In series [2] the test system is ALK (phospho-ALK-Y1278) and downstream signaling. The series is described as follows: Immunoblotting of ALK signaling in CLB-BAR and CLB-GE neuroblastoma cells. In kind it is cell-based, human. The settings on record: 6 h treatment, western blot. Here is the method:
(§1) Fig. 1. […] (A,B) Proliferation was assessed over 5 days using the resazurin cell proliferation assay in the following neuroblastoma cell lines: CLB-BAR, CLB-GE, CLB-PE, SK-N-AS and IMR32. Neuroblastoma cell line characteristics: CLB-GE – MYCN amplified, 1p deletion, 17q gain, amplified ALK amplicon containing an ALK^F1174V mutation; CLB-BAR – amplified MYCN/ALK, Δexon 4-11, 1p deletion, 17q gain; IMR32 – MYCN, wt sequence but exons 2-4 are amplified, 1p deletion, 17q gain; CLB-PE – 1p gain, amplified MYCN, 17q gain; SK-N-AS – IGF-1 overexpressing, 1p deletion, 1q gain, 17q gain, 17 deletion. […] Cells were harvested and pre-cleared cell lysates were analyzed on SDS PAGE followed by western blotting for ALK, phospho-ALK-Y1278, phospho-ERK5, pan-ERK5 phospho-ERK1/2 and pan-ERK. Actin was employed as a loading control. Protein band intensities were quantified by Image Studio Lite 3.1 and normalized to untreated samples.
(§2) CLB-BAR, CLB-GE, CLB-PE, SK-N-AS and IMR32 neuroblastoma cells (0.25×10^6) were plated on collagen-coated 48-well plates.

In another series the test system is CLB-BAR cells. The series is described as follows: Resazurin cell proliferation assay, neuroblastoma cell line. The note with it: Homo sapiens, 120 h, read-out: IC50, inhibition of proliferation. The format is cell-based. Here is the method:
as §1, §2

Series [3] deals with EML4-ALK-driven brain metastases. Details: method as in Zou et al., 2015. The settings on record: mouse; effect reversible upon withdrawal; ref Zou et al., 2015; cited from earlier work.
Details of series [4]: method as in Johnson et al., 2014; Zou et al., 2015. The note with it: ref Johnson et al., 2014, Zou et al., 2015, cited from earlier work.
The test system of the next series is CLB-PE cells. Kind of series: Resazurin cell proliferation assay, neuroblastoma cell line. In kind it is cell-based, human. Here is the method:
as §1, §2

In a further series the test system is SK-N-AS cells. The series is described as above. In kind it is cell-based, human. Here is the method: as §1, §2
Another series concerns IMR32 cells. Described as above. In kind it is cell-based, human. Here is the method: as §1, §2
Series [5] concerns CLB-GE subcutaneous xenograft. Kind of series: Subcutaneous CLB-GE (ALK^F1174V) xenograft in nude mice. The format is in vivo, mouse. Here is the method: Fig. 5. […] 4.5×10^6 CLB-GE cells were injected into left shoulder subcutaneously. (A) Tumor growth curves represent the average volume of vehicle group and PF-06463922-treated group, P≤0.05 (n=5 for each group). […] (C) Average body weight on the day of sacrifice is shown, P>0.05. (D) Immunoblotting analysis of indicated proteins from tumors collected after 8 days of treatment with vehicle or PF-0646399 and relapsed tumors. Tumor lysates were harvested, pre-cleared and analyzed by western blotting for ALK, phospho-ALK-Y1278, MYCN, phospho-ERK1/2 and phospho-AKT. Pan-ERK and pan-Akt were employed as loading controls. (E) Immunohistochemical staining of tumors for […] as a measure of proliferation rate as indicated. […] Data in all graphs presented as mean±s.d.
Mice were grouped by tumor volume randomly. […] Immunohistochemistry was as described ([Yamazaki et al., 2014]). […] (n=15).

The mark [6] stands for this setting: 10 mg/kg twice per day, oral gavage, 7 days.
Setting [7] is: 10 mg/kg twice per day, tumor lysates, western blot.

The structures appear in SMILES notation.

On to `C[C@H]1Oc2cc(cnc2N)-c2c(nn(C)c2C#N)CN(C)C(=O)c2ccc(F)cc21` [PF-06463922, (10R)-7-amino-12-fluoro-2,10,16-trimethyl-15-oxo-10,15,16,17-tetrahydro-2H-8,4-(metheno)pyrazolo[4,3-h][2,5,11]-benzoxadiazacyclotetradecine-3-carbonitrile], for which the IC50 in series [1] is below 6.5 nM; in the series on CLB-GE cells, 25 ± 2 nM; in the series on CLB-BAR cells it was 16 ± 2 nM. In series [2], the “ALK Y1278 phosphorylation” value was “loss of tyrosine 1278 (Y1278) phosphorylation on ALK”. Also, the “downstream signaling, pERK1/2 and pERK5” value in series [2] was “inhibition of downstream signaling”. In addition, the “tumor volume and survival” value in series [3] was “regression of tumor volume and prolonged mouse survival”. In series [4] (preclinical animal model), the half-life was 2.7 h. In addition, the “central nervous system penetration” value in series [4] is “ability to penetrate the central nervous system”. Besides, the “decrease in proliferation at high doses” value with CLB-PE cells (high doses (500 nM)), with SK-N-AS cells (high doses (500 nM)) and with IMR32 cells (high doses (500 nM)) was “not observed” throughout. Besides, the inhibition of proliferation result in the series on CLB-PE cells (increasing doses, 5 days) was “did not observe inhibition of proliferation”; with SK-N-AS cells (increasing doses, 5 days), “did not observe inhibition of proliferation”; with IMR32 cells (increasing doses, 5 days) it was “did not observe inhibition of proliferation”. Also, in series [5] (10 mg/kg twice per day, immunohistochemistry), the “Ki-67 staining of tumors” value is listed as “reduced staining of the proliferation marker Ki-67”. Besides, in series [5] (setting [6]), the “body weight during treatment” value is “no observed loss of body weight”. Moreover, the “tumor size during treatment” value in series [5] (setting [6]) was “no increase of tumor size during treatment”. Further, the “MYCN expression in tumors” value in series [5] (setting [7]) is listed as “reduced expression of MYCN”. Moreover, the “phosphorylated ALK, ERK1/2 and PKB/Akt in tumors” value in [5] (setting [7]) is “Inhibition of phosphorylated ALK, ERK1/2 and PKB/Akt was observed”. Further, the “tumor re-growth after cessation of therapy” value in series [5] (after 7 days of 10 mg/kg twice per day, treatment discontinued) is on record as “Tumor re-growth was observed 7 days after cessation of therapy”.
Take `C[C@@H](Oc1cc(-c2cnn(C3CCNCC3)c2)cnc1N)c1c(Cl)ccc(F)c1Cl` [crizotinib]: in the series on CLB-GE cells, the IC50 is 240 ± 27 nM.

One may read the half-life as the time needed for the level to fall by half in the phase considered.
